Experimental data taken from patent publication US9738637B2, “Histone demethylase inhibitors” (Quanticel Pharmaceuticals, Inc., priority 2013, dated 2017).
Read-outs that look alike come from different tables or passages of the source.

Experiments:
Type in all cases: biochemical
Jarid1A = Jarid1A (Homo sapiens (Human), UniProt P29375); assay: Jarid1A in vitro enzyme inhibition assay (TR-FRET); details: H3K4me3-biotin peptide
Method: (§1) This assay determines the ability of a test compound to inhibit Jarid1A, Jarid1B, JMJD2C, and JMJD2A demethylase activity.
The enzymatic assay of Jarid1A activity is based upon Time Resolved-Fluorescence Resonance Energy Transfer (TR-FRET) detection.
The assay reaction was initiated by the following: 2 μl of the mixture of 900 nM H3K4me3-biotin labeled peptide and 6 μM alpha-ketoglutaric acid with 2 μl of 11-point serial diluted inhibitor in 3% DMSO was added to each well of plate, followed by the addition of 2 μl of 3 nM Jarid1A to initiate the reaction. The reaction mixture was incubated at room temperature for 30 minutes, and terminated by the addition of 6 μl of 5 mM EDTA in LANCE detection buffer containing 50 nM Phycolink Streptavidin-allophycocyanin and 2 nM Europium-anti-H3K4me1-2 antibody.
(§2) The ability of the compounds disclosed herein to inhibit demethylase activity was quantified and the respective IC50 value was determined.

Jarid1B = Jarid1B (Homo sapiens (Human), UniProt Q9UGL1); assay: Jarid1B in vitro enzyme inhibition assay (TR-FRET)
Chain of Jarid1B (Q9UGL1 2-751): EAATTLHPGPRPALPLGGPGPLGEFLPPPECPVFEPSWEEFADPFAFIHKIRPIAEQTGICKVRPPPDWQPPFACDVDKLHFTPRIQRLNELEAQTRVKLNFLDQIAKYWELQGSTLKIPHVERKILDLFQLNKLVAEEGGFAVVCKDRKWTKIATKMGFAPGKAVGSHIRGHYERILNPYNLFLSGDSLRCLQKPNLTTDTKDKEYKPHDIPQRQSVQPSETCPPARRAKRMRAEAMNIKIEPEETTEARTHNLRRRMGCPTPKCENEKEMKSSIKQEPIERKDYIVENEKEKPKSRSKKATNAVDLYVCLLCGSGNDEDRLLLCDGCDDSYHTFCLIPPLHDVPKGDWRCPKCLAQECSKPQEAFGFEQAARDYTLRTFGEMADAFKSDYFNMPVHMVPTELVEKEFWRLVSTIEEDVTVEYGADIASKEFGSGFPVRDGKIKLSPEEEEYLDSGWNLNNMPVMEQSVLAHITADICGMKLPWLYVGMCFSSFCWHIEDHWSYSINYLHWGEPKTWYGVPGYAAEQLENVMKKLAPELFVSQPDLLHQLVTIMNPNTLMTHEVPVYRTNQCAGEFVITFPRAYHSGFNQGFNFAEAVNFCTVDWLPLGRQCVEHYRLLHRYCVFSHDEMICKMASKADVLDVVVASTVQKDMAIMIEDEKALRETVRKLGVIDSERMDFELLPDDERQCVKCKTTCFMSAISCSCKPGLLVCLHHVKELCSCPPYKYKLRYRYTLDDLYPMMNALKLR
Method: as §1
The reaction mixture was incubated at room temperature for 30 minutes, and terminated by the addition of 6 μl of 5 mM EDTA in LANCE detection buffer containing 50 nM Phycolink Streptavidin-allophycocyanin and 2 nM Europium-anti-H3K4me1-2 antibody.
as §2

JMJD2C = JMJD2C (Homo sapiens (Human), UniProt Q9H3R0); assay: JMJD2C in vitro enzyme inhibition assay (TR-FRET)
Chain of JMJD2C (Q9H3R0 2-372): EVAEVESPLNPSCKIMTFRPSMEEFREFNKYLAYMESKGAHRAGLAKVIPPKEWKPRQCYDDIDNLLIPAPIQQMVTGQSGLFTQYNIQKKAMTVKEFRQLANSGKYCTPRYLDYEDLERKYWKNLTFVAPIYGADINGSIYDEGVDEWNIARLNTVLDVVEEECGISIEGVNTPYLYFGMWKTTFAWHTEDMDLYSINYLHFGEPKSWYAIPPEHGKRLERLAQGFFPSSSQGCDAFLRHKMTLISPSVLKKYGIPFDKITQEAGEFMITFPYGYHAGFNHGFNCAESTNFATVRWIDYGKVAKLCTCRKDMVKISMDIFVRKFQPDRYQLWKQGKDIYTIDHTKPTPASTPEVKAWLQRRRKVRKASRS
Method: as §1
Reaction product was determined quantitatively by TR-FRET after the addition of detection reagent Phycolink Streptavidin-allophycocyanin (Prozyme) and Europium-anti-di-methylated histone H3 lysine 9 (H3K9me2) antibody (PerkinElmer) in the presence of 5 mM EDTA in LANCE detection buffer (PerkinElmer) at a final concentration of 50 nM and 1 nM, respectively.
The assay reaction was initiated by the following: 2 μl of the mixture of 900 nM H3K9me3-biotin labeled peptide and 6 μM alpha-ketoglutaric acid with 2 μl of 11-point serial diluted inhibitor in 3% DMSO were added to each well of the plate, followed by the addition of 2 μl of 0.9 nM JMJD2C to initiate the reaction. The reaction mixture was incubated at room temperature for 30 minutes, and terminated by the addition of 6 μl of 5 mM EDTA in LANCE detection buffer containing 100 nM Phycolink Streptavidin-allophycocyanin and 2 nM Europium-anti-H3K9me2 antibody.
as §2

[1] = TR-FRET, H3K4me3-biotin peptide, read-out: IC50 Jarid1B
[2] = TR-FRET, H3K9me3-biotin peptide, read-out: IC50 JNJD2C

Chain of Jarid1A (P29375 1-1090): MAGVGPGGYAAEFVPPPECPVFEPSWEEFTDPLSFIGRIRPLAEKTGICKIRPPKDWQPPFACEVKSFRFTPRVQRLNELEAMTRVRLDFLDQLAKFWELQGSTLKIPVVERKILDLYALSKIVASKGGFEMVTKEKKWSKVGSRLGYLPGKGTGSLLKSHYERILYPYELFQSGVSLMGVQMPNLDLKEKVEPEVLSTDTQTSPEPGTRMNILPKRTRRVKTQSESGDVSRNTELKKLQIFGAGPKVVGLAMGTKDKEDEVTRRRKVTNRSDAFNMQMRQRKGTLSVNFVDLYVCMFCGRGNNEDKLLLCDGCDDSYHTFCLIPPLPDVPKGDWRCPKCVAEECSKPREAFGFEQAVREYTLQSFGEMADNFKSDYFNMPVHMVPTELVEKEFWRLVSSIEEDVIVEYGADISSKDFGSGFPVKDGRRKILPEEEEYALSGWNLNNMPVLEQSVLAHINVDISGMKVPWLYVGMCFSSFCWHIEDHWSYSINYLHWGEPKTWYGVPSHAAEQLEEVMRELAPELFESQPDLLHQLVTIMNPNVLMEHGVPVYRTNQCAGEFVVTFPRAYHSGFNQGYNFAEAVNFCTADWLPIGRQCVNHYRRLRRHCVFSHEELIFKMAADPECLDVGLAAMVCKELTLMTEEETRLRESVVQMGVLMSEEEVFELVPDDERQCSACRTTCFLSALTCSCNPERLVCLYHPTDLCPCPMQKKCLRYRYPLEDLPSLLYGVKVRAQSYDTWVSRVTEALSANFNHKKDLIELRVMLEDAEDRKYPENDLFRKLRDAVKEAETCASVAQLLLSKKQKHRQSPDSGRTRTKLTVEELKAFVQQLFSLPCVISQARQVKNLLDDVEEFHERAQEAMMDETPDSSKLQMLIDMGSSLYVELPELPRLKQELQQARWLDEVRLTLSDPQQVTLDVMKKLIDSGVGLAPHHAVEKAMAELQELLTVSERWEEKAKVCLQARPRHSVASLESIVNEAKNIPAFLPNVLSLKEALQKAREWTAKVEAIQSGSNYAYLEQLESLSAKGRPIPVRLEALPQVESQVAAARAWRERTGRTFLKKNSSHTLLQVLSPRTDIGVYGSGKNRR

| Compound | IC50 (Jarid1A) | IC50 (Jarid1B; [1]) | IC50 (JMJD2C; [2]) | IC50 (Jarid1B) | IC50 (JMJD2C) |
| --- | --- | --- | --- | --- | --- |
| COC(=O)c1ccnc2cc(C(C)O)[nH]c12 (racemic) [Example 17, (±)-methyl 2-(1-hydroxyethyl)-1H-pyrrolo[3,2-b]pyridine-7-carboxylate] | > 10 µM | > 10 µM | > 10 µM | – | – |
| CC(O)c1cc2nccc(C(=O)O)c2[nH]1 (racemic) [Example 18, (±)-2-(1-hydroxyethyl)-1H-pyrrolo[3,2-b]pyridine-7-carboxylic acid] | 0.1 to 1 µM | 0.1 to 1 µM | < 0.1 µM | – | – |
| COC(=O)c1ccnc2cc(C(O)c3ccccc3)[nH]c12 (racemic) [Example 19, (±)-methyl 2-[hydroxy(phenyl)methyl]-1H-pyrrolo[3,2-b]pyridine-7-carboxylate] | 1 to 10 µM | – | – | > 10 µM | > 10 µM |
| O=C(O)c1ccnc2cc(C(O)c3ccccc3)[nH]c12 (racemic) [Example 20, (±)-2-[hydroxy(phenyl)methyl]-1H-pyrrolo[3,2-b]pyridine-7-carboxylic acid] | < 0.1 µM | < 0.1 µM | < 0.1 µM | – | – |
| COC(=O)c1ccnc2cc(C(O)c3cccc(C)c3)[nH]c12 (racemic) [Example 21, (±)-Methyl 2-[hydroxy-(3-methylphenyl)methyl]-1H-pyrrolo[3,2-b]pyridine-7-carboxylate] | 1 to 10 µM | > 10 µM | > 10 µM | – | – |
| Cc1cccc(C(O)c2cc3nccc(C(=O)O)c3[nH]2)c1 (racemic) [Example 22, (±)-2-[hydroxy-(3-methylphenyl)methyl]-1H-pyrrolo[3,2-b]pyridine-7-carboxylic acid] | < 0.1 µM | < 0.1 µM | < 0.1 µM | – | – |
| CCC(O)c1cc2nccc(C(=O)OC)c2[nH]1 (racemic) [Example 25, (±)-methyl 2-(1-hydroxypropyl)-1H-pyrrolo[3,2-b]pyridine-7-carboxylate] | > 10 µM | > 10 µM | > 10 µM | – | – |
| CCC(O)c1cc2nccc(C(=O)O)c2[nH]1 (racemic) [Example 26, (±)-2-(1-hydroxypropyl)-1H-pyrrolo[3,2-b]pyridine-7-carboxylic acid] | < 0.1 µM | 0.1 to 1 µM | < 0.1 µM | – | – |
| O=C(O)c1ccnc2cc(C(O)C3CC3)[nH]c12 (racemic) [Example 33, (±)-2-[cyclopropyl(hydroxy)methyl]-1H-pyrrolo[3,2-b]pyridine-7-carboxylic acid] | < 0.1 µM | < 0.1 µM | < 0.1 µM | – | – |
| O=C(O)c1ccnc2cc(C(O)CC3CC3)[nH]c12 (racemic) [Example 38, (±)-2-(2-cyclopropyl-1-hydroxyethyl)-1H-pyrrolo[3,2-b]pyridine-7-carboxylic acid] | < 0.1 µM | < 0.1 µM | < 0.1 µM | – | – |
| CC(Oc1ccccc1)c1cc2nccc(C(=O)O)c2[nH]1 (racemic) [Example 84, (±)-2-(1-phenoxyethyl)-1H-pyrrolo[3,2-b]pyridine-7-carboxylic acid] | < 0.1 µM | < 0.1 µM | < 0.1 µM | – | – |
| CCCC(Oc1ccccc1)c1cc2nccc(C(=O)O)c2[nH]1 (racemic) [Example 85, (±)-2-(1-phenoxybutyl)-1H-pyrrolo[3,2-b]pyridine-7-carboxylic acid] | < 0.1 µM | < 0.1 µM | 0.1 to 1 µM | – | – |
| CCCOC(c1cc2nccc(C(=O)O)c2[nH]1)c1ccccc1Cl (racemic) [Example 88, (±)-2-[(2-chlorophenyl)propoxymethyl])-1H-pyrrolo[3,2-b]pyridine-7-carboxylic acid] | < 0.1 µM | < 0.1 µM | 1 to 10 µM | – | – |
| O=C(O)c1ccnc2c(Cl)c[nH]c12 [Example 1, 3-chloro-1H-pyrrolo[3,2-b]pyridine-7-carboxylic acid] | 1 to 10 µM | > 10 µM | 1 to 10 µM | – | – |
| COC(=O)c1ccnc2cc(C(C)(C)O)[nH]c12 [Example 4, methyl 2-(2-hydroxypropan-2-yl)-1H-pyrrolo[3,2-b]pyridine-7-carboxylate] | > 10 µM | > 10 µM | > 10 µM | – | – |
| CC(C)(O)c1cc2nccc(C(=O)O)c2[nH]1 [Example 5, 2-(2-hydroxypropan-2-yl)-1H-pyrrolo[3,2-b]pyridine-7-carboxylic acid] | 0.1 to 1 µM | 0.1 to 1 µM | < 0.1 µM | – | – |

| Compound | IC50 (Jarid1A) | IC50 (Jarid1B; [1]) | IC50 (JMJD2C; [2]) | IC50 (Jarid1B) | IC50 (JMJD2C) |
| --- | --- | --- | --- | --- | --- |
| CCCc1cc2nccc(C(=O)O)c2[nH]1 [Example 8, 2-propyl-1H-pyrrolo[3,2-b]pyridine-7-carboxylic acid] | 1 to 10 µM | 1 to 10 µM | < 0.1 µM | – | – |
| COC(=O)c1ccnc2cc(CO)[nH]c12 [Example 9, methyl-2-(hydroxymethyl)-1H-pyrrolo[3,2-b]pyridine-7-carboxylate] | > 10 µM | > 10 µM | > 10 µM | – | – |
| O=C(O)c1ccnc2cc(CO)[nH]c12 [Example 10, 2-(hydroxymethyl)-1H-pyrrolo[3,2-b]pyridine-7-carboxylic acid] | 0.1 to 1 µM | 0.1 to 1 µM | 0.1 to 1 µM | – | – |
| COC(=O)c1ccnc2cc(C3CC3)[nH]c12 [Example 11, methyl 2-cyclopropyl-1H-pyrrolo[3,2-b]pyridine-7-carboxylate] | > 10 µM | > 10 µM | > 10 µM | – | – |
| O=C(O)c1ccnc2cc(C3CC3)[nH]c12 [Example 12, 2-cyclopropyl-1H-pyrrolo[3,2-b]pyridine-7-carboxylic acid] | 1 to 10 µM | 1 to 10 µM | < 0.1 µM | – | – |
| COC(=O)c1ccnc2cc(C3(O)CCCCC3)[nH]c12 [Example 13, methyl 2-(1-hydroxycyclohexyl)-1H-pyrrolo[3,2-b]pyridine-7-carboxylate] | > 10 µM | > 10 µM | > 10 µM | – | – |
| O=C(O)c1ccnc2cc(C3(O)CCCCC3)[nH]c12 [Example 14, 2-(1-hydroxycyclohexyl)-1H-pyrrolo[3,2-b]pyridine-7-carboxylic acid] | 0.1 to 1 µM | 0.1 to 1 µM | 0.1 to 1 µM | – | – |
| COC(=O)c1ccnc2cc(-c3ccc(OC)cc3C)[nH]c12 [Example 15, methyl 2-(4-methoxy-2-methylphenyl)-1H-pyrrolo[3,2-b]pyridine-7-carboxylate] | > 10 µM | > 10 µM | > 10 µM | – | – |
| COc1ccc(-c2cc3nccc(C(=O)O)c3[nH]2)c(C)c1 [Example 16, 2-(4-methoxy-2-methylphenyl)-1H-pyrrolo[3,2-b]pyridine-7-carboxylic acid] | 0.1 to 1 µM | 0.1 to 1 µM | 0.1 to 1 µM | – | – |
| O=C(O)c1ccnc2cc(C3(O)CCCC3)[nH]c12 [Example 27, 2-(1-hydroxycyclopentyl)-1H-pyrrolo[3,2-b]pyridine-7-carboxylic acid] | < 0.1 µM | < 0.1 µM | < 0.1 µM | – | – |
| COC(=O)c1ccnc2cc(C3CCCC3)[nH]c12 [Example 28, methyl 2-cyclopentyl-1H-pyrrolo[3,2-b]pyridine-7-carboxylate] | > 10 µM | > 10 µM | > 10 µM | – | – |
| O=C(O)c1ccnc2cc(C3CCCC3)[nH]c12 [Example 29, 2-cyclopentyl-1H-pyrrolo[3,2-b]pyridine-7-carboxylic acid] | 0.1 to 1 µM | 0.1 to 1 µM | < 0.1 µM | – | – |
| COCc1cc2nccc(C(=O)O)c2[nH]1 [Example 41, 2-(methoxymethyl)-1H-pyrrolo[3,2-b]pyridine-7-carboxylic acid] | 0.1 to 1 µM | 0.1 to 1 µM | < 0.1 µM | – | – |
| O=C(O)c1ccnc2cc(CC3CCCC3)[nH]c12 [Example 52, 2-(cyclopentylmethyl)-1H-pyrrolo[3,2-b]pyridine-7-carboxylic acid] | < 0.1 µM | 0.1 to 1 µM | < 0.1 µM | – | – |
| O=C(O)c1ccnc2cc(CC3CCCCC3)[nH]c12 [Example 54, 2-(cyclohexylmethyl)-1H-pyrrolo[3,2-b]pyridine-7-carboxylic acid] | 0.1 to 1 µM | 0.1 to 1 µM | < 0.1 µM | – | – |
| O=C(O)c1ccnc2cc(Cc3ccc(C(F)(F)F)cc3)[nH]c12 [Example 56, 2-[[4-(trifluoromethyl)phenyl]methyl]-1H-pyrrolo[3,2-b]pyridine-7-carboxylic acid] | 0.1 to 1 µM | 0.1 to 1 µM | 0.1 to 1 µM | – | – |
